We go through eight compounds from patent US20040171692A1, “Modulation of bone formation” (priority 2003, published 2004).

Assay [1] deals with bone forming cells (whole bone marrow cells, NASP cells, neonatal rat calvariae). Briefly: CFU-f and NASP cell assays in combination with neonatal rat calvarial organ cultures (bone anabolic activity). The class given is cell-based. The following applies: for bone anabolic activity: useful = equivalent activity to that of PGE2, FIGS. 4-7. The source says: The main reason for the lack of understanding of the cellular basis for the actions of bone anabolic drugs is that there exists, at present, no single in vitro assay which responds to these drugs in an appropriate manner. However, we have now developed a number of assays which, when used in combination with neonatal rat calvarial organ cultures, are able to predict bone anabolic agents.
Whole bone marrow cells (BMC's) were obtained from the tibias and femurs of 125 g male Wistar rats. The bones were removed under aseptic conditions and all soft adherent tissue removed. An end of each bone was removed, a hole made in the opposing end with an 18 gauge syringe needle, and the cells isolated centrifugally [Dobson K. R., et al., Calcif. tissue Int., 65:411-413 (1999)]. The cells were dispersed in 10 ml DMEM (containing 12% FCS, 1×10^−8 M dexamethasone and […] ascorbic acid) by repeated pipetting, and a single-cell suspension achieved by forcefully expelling the cells through a 20 gauge syringe needle. The cells were then used in the protocols described below.
To analyse the numbers of fibroblastic-colony forming units (CFU-f) in either whole BMC or high density non-adherent stromal precursor (NASP) cell cultures, 10^6 nucleated BMC, or the non-adherent cells from the high density NASP cell cultures, were plated out on 55 cm^2 petri dishes in DMEM containing; 12% FCS, 1×10^−8 M dexamethasone and 50 μg/ml ascorbic acid. In the case of the CFU-f analysis of whole BMC, the test agents were added once at the beginning of the culture period. In the case of NASP cell cultures, the test agents were added at the beginning of the NASP cell cultures themselves and the CFU-f assay only used to assess the number of CFU-f generated during the NASP cell culture. The medium was changed after 5 days and, thereafter, twice weekly. The cultures were maintained for 18 days, after which the cells were washed with PBS and fixed, by the addition of cold ethanol.
After fixation, the cultures were stained for alkaline phosphatase (APase) positive, calcium positive, collagen positive and total colonies as described by Scutt & Bertram (J. Bone and Mineral Res. 10:474-489, 1995). The cultures were then photographed using a digital camera and the APase positive, calcium positive, collagen positive and total colonies quantitated using Bioimage “Intelligent Quantifier” image analysis software [Dobson K., et al., A cost effective method for the automatic quantitative analysis of fibroblastic-colony forming units with osteoblastic potential. Calcif. Tissue Int. 65:166-172 (1999)].
BMC were cultured at a density of 1.5×10^6 cells per 2 cm^2 well in 0.75 ml DMEM containing 12% FCS, 10^−8 M dexamethasone and 50 μg/ml ascorbic acid. Solutions of the agents to be tested were added to the wells and then cultured for 4 days. The numbers of NASP cells present in the supernatant were then quantitated as described above for CFU-f cultures. To do this, the cultures were gently agitated and the supernatants, containing the non-adherent cells, were transferred to 55 cm^2 petri dishes. 10 ml of DMEM containing 12% FCS, 1×10^−8 M dexamethasone, 50 μg/ml ascorbic acid was added and the cultures maintained further as described above for CFU-f cultures.
One day old rat pups were killed and the calvariae (skull cases) dissected out. The calvariae were then cut along the sagittal suture to give two hemicalvariae per foetus. Each bone was cultured in 2 ml DMEM containing 1 mg/ml BSA, 50 μg/ml ascorbic acid, 60 μg/ml penicillin, and 50 μg/ml streptomycin and 1×10^−8 M dexamethasone in 35 mm tissue culture wells. After 24 h, the medium was replaced with fresh medium, any test agent added, and the tissue cultured for a further 48 h.
In this assay, each bone was pulsed with 10 μCi of [^3H]proline for 24 h at the end of the culture period. The bones were washed successively in trichloroacetic acid (TCA), acetone, and ether, and then dried. […]

The subject of the next assay is whole bone marrow cells. Description: Fibroblastic colony forming unit (CFU-f) cultures, colony numbers. It counts as cell-based, rat. As for the experimental part:
Whole bone marrow cells (BMC's) were obtained from the tibias and femurs of 125 g male Wistar rats. The bones were removed under aseptic conditions and all soft adherent tissue removed. An end of each bone was removed, a hole made in the opposing end with an 18 gauge syringe needle, and the cells isolated centrifugally [Dobson K. R., et al., Calcif. tissue Int., 65:411-413 (1999)]. The cells were dispersed in 10 ml DMEM (containing 12% FCS, 1×10^−8 M dexamethasone and […] ascorbic acid) by repeated pipetting, and a single-cell suspension achieved by forcefully expelling the cells through a 20 gauge syringe needle. The cells were then used in the protocols described below. To analyse the numbers of fibroblastic-colony forming units (CFU-f) in either whole BMC or high density non-adherent stromal precursor (NASP) cell cultures, 10^6 nucleated BMC, or the non-adherent cells from the high density NASP cell cultures, were plated out on 55 cm^2 petri dishes in DMEM containing; 12% FCS, 1×10^−8 M dexamethasone and 50 μg/ml ascorbic acid. In the case of the CFU-f analysis of whole BMC, the test agents were added once at the beginning of the culture period. In the case of NASP cell cultures, the test agents were added at the beginning of the NASP cell cultures themselves and the CFU-f assay only used to assess the number of CFU-f generated during the NASP cell culture. The medium was changed after 5 days and, thereafter, twice weekly. The cultures were maintained for 18 days, after which the cells were washed with PBS and fixed, by the addition of cold ethanol. […] The cultures were then photographed using a digital camera and the APase positive, calcium positive, collagen positive and total colonies quantitated using Bioimage “Intelligent Quantifier” image analysis software [Dobson K., et al., A cost effective method for the automatic quantitative analysis of fibroblastic-colony forming units with osteoblastic potential. […]

The next assay concerns MB-1.8 cells. The following applies: MB-1.8 cells exposed to TZD; cited from earlier work.

Entries after “also recorded” stand apart in the source; their conditions may differ.

For `CCCCCCCC/C=C\CCCCCCCC(=O)O` [oleic acid], the bone anabolic activity result in assay [1] is reported as “useful activity”.
With `CCCCCCCCCCCCCCCC(=O)OC` [Methyl palmitate, methyl palmitate], the colony numbers entry in the assay on whole bone marrow cells was “stimulation”.
For `CCCCC/C=C\C/C=C\CCCCCCCC(=O)O` [Linoleic acid, linoleic acid], in assay [1], the bone anabolic activity result was “showed bone anabolic activity”.
With `c1cc2c(cc1[C@H]1OC[C@H]3[C@@H]1CO[C@@H]3c1ccc3c(c1)OCO3)OCO2` [sesamin], in assay [1], the bone anabolic activity result is “useful activity”.
For `CCCCC[C@H](O)/C=C/[C@H]1C=CC(=O)[C@@H]1CCCCCCC(=O)O` [PGA1], in the assay with whole bone marrow cells, the colony numbers entry is on record as “significant dose dependent increase”. Further, the “response in all three assays” value in assay [1] (alkaline phosphatase activity, calcium uptake and collagen synthesis, FIG. 1) was “positive response”. Moreover, the “bone anabolic activity relative to PGE2” value in assay [1] (compared with PGE2, FIGS. 1-3) is recorded as “comparable with that produced by PGE2; also recorded: at least as good as that of PGE2”.
As to `CCCCC[C@H](O)/C=C/[C@H]1C=CC(=O)[C@@H]1C/C=C\CCCC(=O)O` [PGA2], the bone anabolic activity entry in assay [1] is given as “useful activity”.
Consider `CN(CCOc1ccc(CC2SC(=O)NC2=O)cc1)c1ccccn1` (centres unmarked) [TZD, 5-(4-{[N-methyl-N(2-pyridyl)-amino]ethoxy}benzyl)thiazolidine-2,4-dione], for which, in the assay on MB-1.8 cells, the “alkaline phosphatase activity and expression of osteoblast-associated genes” value was “decrease”; the “expression of adipocyte fatty acid protein” value is “enhancing”.
With `CC#CCC(C)[C@H](O)/C=C/[C@@H]1[C@H]2C/C(=C/CCCC(=O)O)C[C@H]2C[C@H]1O` (some centres unmarked) [iloprost], in the assay on whole bone marrow cells, the colony numbers entry was “stimulation comparable with that of PGA1”.
